# Data: paper PMC4509728, “Crystal Structures Reveal that the Reaction Mechanism of Imidazoleglycerol-Phosphate Dehydratase Is Controlled by Switching Mn(II) Coordination” (Structure(London, England:1993), 2015)
# Molecular target: T1, IGPD2 (construct B) (Arabidopsis thaliana, UniProt O23346, E73Q)
# T1 construct: gene HISN5B; construct B, residues 69-272, signal peptide removed and further N-terminal truncation; pET24a, E. coli BL21(DE3); homo 24mer, site formed by three chains
# T1 sequence (O23346 69-272 E73Q): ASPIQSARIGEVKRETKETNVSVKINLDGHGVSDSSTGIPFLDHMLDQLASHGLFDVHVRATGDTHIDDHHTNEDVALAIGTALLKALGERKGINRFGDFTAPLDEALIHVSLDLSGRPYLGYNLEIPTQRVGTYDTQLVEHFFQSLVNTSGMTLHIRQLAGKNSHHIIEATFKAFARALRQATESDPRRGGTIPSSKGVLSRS
# Experiment: X-ray crystallography of the co-crystal ([…] Å form A)
# Format: binding
# Settings: inactive mutant, Mn(II), mixed occupancy with 2R3S IGP at the same site
smiles,measurement,value
O=P(O)(O)OC[C@H](O)[C@@H](O)c1cnc[nH]1 [2S3S diastereoisomer of IGP],X-ray crystallography of the co-crystal (1.12 Å form A),Both diastereoisomers bind at the same site
